# Measurements published in article PMC12742849 (Protein & Cell, 2025).
# Biological target: RibD-enolase complex (RibD activity) (Francisella tularensis, UniProt A0Q460)
# Settings: substrate generated in situ from GTP by E. coli RibA; with and without PEP
smiles,measurement,value
"Nc1nc(N[C@@H]2O[C@H](COP(=O)(O)O)[C@@H](O)[C@H]2O)c(N)c(=O)[nH]1 [2,5-diamino-6-ribosyl-amino-4(3H) pyrimidinedione 5′-phosphate]","fluorescence of the RibD reaction product (ex 408 nm, em 485 nm)","Results showed similar activity for both, with PEP having the same effect on each"
